The target in one test is Carbonic anhydrase 9 (Homo sapiens, UniProt Q16790). Briefly: Inhibition of recombinant human CA9 preincubated for 15 mins by phenol red dye-based stopped-flow CO2 hydration assay.
For a further test, the target named is Carbonic anhydrase 2 (Homo sapiens, UniProt P00918). Briefly: Inhibition of recombinant human CA2 preincubated for 15 mins by phenol red dye-based stopped-flow CO2 hydration assay.
Another test addresses Carbonic anhydrase 4 (Homo sapiens, UniProt P22748). Briefly: Inhibition of recombinant human CA4 preincubated for 15 mins by phenol red dye-based stopped-flow CO2 hydration assay.
Another test addresses Carbonic anhydrase 1 (Homo sapiens, UniProt P00915). Description: Inhibition of recombinant human CA1 preincubated for 15 mins by phenol red dye-based stopped-flow CO2 hydration assay.

Chain of Carbonic anhydrase 4 (P22748 whole entry): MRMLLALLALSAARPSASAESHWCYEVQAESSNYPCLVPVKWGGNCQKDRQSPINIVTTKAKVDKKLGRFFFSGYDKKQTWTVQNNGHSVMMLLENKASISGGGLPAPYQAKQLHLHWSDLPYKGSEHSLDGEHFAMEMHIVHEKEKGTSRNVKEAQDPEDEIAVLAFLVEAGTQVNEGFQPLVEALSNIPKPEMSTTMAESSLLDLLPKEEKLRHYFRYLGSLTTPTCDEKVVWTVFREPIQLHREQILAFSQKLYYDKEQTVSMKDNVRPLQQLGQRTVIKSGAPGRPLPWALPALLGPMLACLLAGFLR
Chain of Carbonic anhydrase 1 (P00915 whole entry): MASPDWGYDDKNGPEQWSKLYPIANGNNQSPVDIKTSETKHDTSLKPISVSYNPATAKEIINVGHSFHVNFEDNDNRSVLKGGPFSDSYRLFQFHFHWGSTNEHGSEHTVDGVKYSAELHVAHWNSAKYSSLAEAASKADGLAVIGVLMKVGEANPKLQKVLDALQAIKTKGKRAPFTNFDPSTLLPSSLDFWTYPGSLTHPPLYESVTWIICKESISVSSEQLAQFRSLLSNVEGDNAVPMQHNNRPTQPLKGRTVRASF

With `O=C1CCCc2c1cnn2-c1ccc(S(=O)(=O)Nc2cccc(Cl)c2)cc1`, the inhibitory constant (Ki) (usually a dissociation constant, usually derived from enzyme kinetics or from competition with a known ligand) at Carbonic anhydrase 9 was found to be 37.1 µM. Turning to `COc1cccc(NS(=O)(=O)c2ccc(-n3ncc4c3CC(c3ccccc3)CC4=O)cc2)c1` (centres undefined), the Ki on Carbonic anhydrase 9 came to 57.3 µM.

`CC1(C)CC(=O)c2cnn(-c3ccc(S(=O)(=O)Nc4ccc(Cl)cc4)cc3)c2C1`: the inhibition constant (Ki) at Carbonic anhydrase 9 is over 100 µM. In the case of `O=C1CCCc2c1cnn2-c1ccc(S(=O)(=O)Nc2ccc(Cl)cc2)cc1`, the Ki at Carbonic anhydrase 9 is over 100 µM. Regarding `Cc1ccc(NS(=O)(=O)c2ccc(-n3ncc4c3CCCC4=O)cc2)cc1`, the Ki on Carbonic anhydrase 9 turned out to be 39.2 µM. `COc1cccc(NS(=O)(=O)c2ccc(-n3ncc4c3CCCC4=O)cc2)c1`: the inhibition constant (Ki) at Carbonic anhydrase 2, on Carbonic anhydrase 9 and at Carbonic anhydrase 4 was over 100 µM each time.

As for `Cc1ccc(NS(=O)(=O)c2ccc(-n3ncc4c3CC(c3ccccc3)CC4=O)cc2)cc1` (centres undefined), the Ki at Carbonic anhydrase 9 worked out at 46.7 µM. Consider `O=C1CCCc2c1cnn2-c1ccc(S(=O)(=O)Nc2cccc([N+](=O)[O-])c2)cc1`, for which the inhibition constant (Ki) at Carbonic anhydrase 2 and on Carbonic anhydrase 9 was over 100 µM throughout.

For `COc1cccc(NS(=O)(=O)c2ccc(-n3ncc4c3CC(C)(C)CC4=O)cc2)c1`, at Carbonic anhydrase 9, the Ki is over 100 µM. For `CC1(C)CC(=O)c2cnn(-c3ccc(S(=O)(=O)Nc4cccc(Cl)c4)cc3)c2C1`, the Ki at Carbonic anhydrase 2, at Carbonic anhydrase 9 and at Carbonic anhydrase 1 was over 100 µM in each case.

With `COc1ccc(NS(=O)(=O)c2ccc(-n3ncc4c3CC(c3ccccc3)CC4=O)cc2)cc1` (centres undefined), the Ki at Carbonic anhydrase 9 worked out at 40 µM. Take `O=C1CC(c2ccccc2)Cc2c1cnn2-c1ccc(S(=O)(=O)Nc2cccc(Cl)c2)cc1` (centres undefined): the inhibition constant (Ki) on Carbonic anhydrase 9 is 41.8 µM. As to `Cc1cccc(NS(=O)(=O)c2ccc(-n3ncc4c3CC(C)(C)CC4=O)cc2)c1`, the inhibition constant Ki on Carbonic anhydrase 2, at Carbonic anhydrase 9 and on Carbonic anhydrase 1 was over 100 µM in each case. Regarding `COc1ccc(NS(=O)(=O)c2ccc(-n3ncc4c3CCCC4=O)cc2)cc1`, the inhibitory constant (Ki) on Carbonic anhydrase 9 was 56.5 µM. As for `COc1ccc(NS(=O)(=O)c2ccc(-n3ncc4c3CC(C)(C)CC4=O)cc2)cc1`, the inhibitory constant (Ki) at Carbonic anhydrase 9 is over 100 µM. `O=C1CC(c2ccccc2)Cc2c1cnn2-c1ccc(S(=O)(=O)Nc2ccc(Cl)cc2)cc1` (centres undefined): the Ki on Carbonic anhydrase 9 amounted to 47 µM. The same measure, in the same setting: next, `O=C1CC(c2ccccc2)Cc2c1cnn2-c1ccc(S(=O)(=O)Nc2ccc([N+](=O)[O-])cc2)cc1` (centres undefined): 4.1 µM; `O=C1CCCc2c1cnn2-c1ccc(S(=O)(=O)Nc2ccccc2)cc1`: 97.9 µM.

Consider `CC1(C)CC(=O)c2cnn(-c3ccc(S(=O)(=O)Nc4ccc([N+](=O)[O-])cc4)cc3)c2C1`, for which the Ki on Carbonic anhydrase 9 and at Carbonic anhydrase 1 was over 100 µM each time. As for `CC1(C)CC(=O)c2cnn(-c3ccc(S(=O)(=O)Nc4ccccc4)cc3)c2C1`, at Carbonic anhydrase 9, the Ki is over 100 µM. Still for that read-out and setting: the result for `Cc1cccc(NS(=O)(=O)c2ccc(-n3ncc4c3CCCC4=O)cc2)c1` reads 33 µM. For `O=C1CC(c2ccccc2)Cc2c1cnn2-c1ccc(S(=O)(=O)Nc2cccc([N+](=O)[O-])c2)cc1` (centres undefined), the Ki at Carbonic anhydrase 9 was 84.7 µM; on Carbonic anhydrase 4, over 100 µM. Regarding `O=C1CC(c2ccccc2)Cc2c1cnn2-c1ccc(S(=O)(=O)Nc2ccccc2)cc1` (centres undefined), on Carbonic anhydrase 9, the Ki worked out at 95.4 µM. In the case of `Cc1cccc(NS(=O)(=O)c2ccc(-n3ncc4c3CC(c3ccccc3)CC4=O)cc2)c1` (centres undefined), the results for the Ki at Carbonic anhydrase 9 and at Carbonic anhydrase 4 were 61.5 µM and over 100 µM, respectively. In the case of `Cc1ccc(NS(=O)(=O)c2ccc(-n3ncc4c3CC(C)(C)CC4=O)cc2)cc1`, the inhibition constant Ki on Carbonic anhydrase 9 and on Carbonic anhydrase 1 was over 100 µM throughout. For `CC1(C)CC(=O)c2cnn(-c3ccc(S(=O)(=O)Nc4cccc([N+](=O)[O-])c4)cc3)c2C1`, the Ki at Carbonic anhydrase 9 and on Carbonic anhydrase 1 was over 100 µM each time.

Turning to `O=C1CCCc2c1cnn2-c1ccc(S(=O)(=O)Nc2ccc([N+](=O)[O-])cc2)cc1`, the Ki on Carbonic anhydrase 9 is 83.7 µM.

(Values after ChEMBL document CHEMBL4828705, “Inhibition studies on carbonic anhydrase isoforms I, II, IV and IX with N-arylsubstituted secondary sulfonamides featuring a bicyclic tetrahydroindazole scaffold” (Eur J Med Chem, 2021).)
